Structures are written as SMILES.

The data set is described as follows: Warming properties: rise in temperature on mixing with water (heat of solution). The format is physicochemical. The settings on record: mixed with water; Hest G-18-O maximum when about 60% by weight is used. The text has this:
When Hest G-18-O is mixed with water at ambient temperature, there is a rise in temperature. The rise in temperature ranges from about 5 degrees C. to about 15 degrees C.; it also ranges from about 8 degrees C. to about 12 degrees C. This rise in temperature is about 2-3 times more than that obtained with the same weight of glycerine (FIG. 1) or propylene glycol. The temperature rise reaches a maximum of about 12 degrees C. when about 60% by weight of Hest G-18-O is used. This compares to a maximum of only about 5 degrees C. for glycerine or propylene glycol.
The maximum amount of heat (though not the greatest rise in temperature) is obtained when the Hest G-18-O is dissolved in a large excess of water. If the Hest G-18-O, glycerine or propylene glycol is not anhydrous, some of its heat of solution will already have been dissipated. Correspondingly, smaller amounts of heat will be produced by further dilution.

For `OCC(O)CO` [glycerine], the maximum temperature rise result is listed as “about 5 degrees C”.
As for `CC(O)CO` (centres unmarked) [propylene glycol], the entry is “about 5 degrees C”.
